What was measured:
Assay in all cases: relative viability (nuclei count vs DMSO), 5 days (fraction); higher = more cells survive
[1] = compound: CCOc1cc2ncc(C#N)c(Nc3ccc(OCc4ccccn4)c(Cl)c3)c2cc1NC(=O)/C=C/CN(C)C [Neratinib] + CC(=O)c1c(C)c2cnc(Nc3ccc(N4CCNCC4)cn3)nc2n(C2CCCC2)c1=O [Palbociclib] (partner 0.5 µM)
How it was run: (§1)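 Lung cancer cell lines, seeded in 1536-well plates, were treated the following day by pin tool with a single drug or with five library-drug doses (not always all listed) in √10 steps on top of a fixed anchor-drug dose. Cells were fixed and nuclei stained in one step after 5 days, and nuclei were counted. Relative viability is the nuclei count for treated wells divided by that for vehicle wells, reported as medians of duplicate plates.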

[2] = compound: CCOc1cc2ncc(C#N)c(Nc3ccc(OCc4ccccn4)c(Cl)c3)c2cc1NC(=O)/C=C/CN(C)C [Neratinib] + C[C@@H](Oc1cc(-c2cnn(C3CCNCC3)c2)cnc1N)c1c(Cl)ccc(F)c1Cl [Crizotinib] (partner 1 µM)
How it was run: as §1

[3] = compound: CCOc1cc2ncc(C#N)c(Nc3ccc(OCc4ccccn4)c(Cl)c3)c2cc1NC(=O)/C=C/CN(C)C [Neratinib] + O=C(CCCCCCC(=O)Nc1ccccc1)NO [Vorinostat] (partner 1 µM)
How it was run: as §1

[4] = compound: CCOc1cc2ncc(C#N)c(Nc3ccc(OCc4ccccn4)c(Cl)c3)c2cc1NC(=O)/C=C/CN(C)C [Neratinib] + NC(=O)Nc1cc(-c2cccc(F)c2)sc1C(=O)N[C@H]1CCCNC1 [AZD7762] (partner 0.2 µM)
How it was run: as §1

Cell Line | relative viability ([1]; first compound 0.01 µM) | relative viability ([1]; first compound 0.03162 µM) | relative viability ([1]; first compound 0.3162 µM) | relative viability ([1]; first compound 1 µM) | relative viability ([2]; first compound 0.01 µM) | relative viability ([2]; first compound 0.03162 µM) | relative viability ([2]; first compound 0.1 µM) | relative viability ([2]; first compound 0.3162 µM) | relative viability ([2]; first compound 1 µM) | relative viability ([3]; first compound 0.01 µM) | relative viability ([3]; first compound 0.03162 µM) | relative viability ([3]; first compound 0.3162 µM) | relative viability ([3]; first compound 1 µM) | relative viability ([4]; first compound 0.01 µM) | relative viability ([4]; first compound 0.03162 µM) | relative viability ([4]; first compound 0.1 µM) | relative viability ([4]; first compound 0.3162 µM) | relative viability ([4]; first compound 1 µM) | relative viability ([3]; first compound 0.1 µM) | relative viability ([1]; first compound 0.1 µM)
NCI-H520 | 0.191 | 0.242 | 0.213 | 0.183 | 0.908 | 0.929 | 0.773 | 0.689 | 0.429 | 0.759 | 0.686 | 0.615 | 0.509 | – | – | – | – | – | – | –
NCI-H596 | – | – | – | – | 0.944 | 1.09 | 1.04 | 0.903 | 0.861 | 0.5 | 0.641 | 0.622 | 0.73 | 1.07 | 1.27 | 0.745 | 1.1 | 0.805 | 0.631 | –
NCI-H661 | 0.437 | 0.388 | 0.318 | 0.298 | 1.06 | 0.983 | 0.989 | 0.828 | 0.343 | 0.866 | 0.729 | 0.657 | 0.445 | – | – | – | – | – | 0.583 | 0.323
NCI-H1299 | – | – | – | – | 0.991 | 1.02 | 0.95 | 0.991 | 1.06 | – | – | – | – | – | – | – | – | – | – | –
NCI-H1395 | 0.66 | 0.709 | 0.58 | 0.414 | – | – | – | – | – | 0.846 | 0.698 | 0.722 | 0.595 | 0.419 | 0.42 | 0.399 | 0.388 | 0.389 | – | 0.63
NCI-H1563 | – | – | – | – | 0.918 | 0.802 | 0.788 | 0.758 | 0.638 | – | – | – | – | – | – | – | – | – | – | –
NCI-H1648 | 0.29 | 0.265 | 0.26 | 0.337 | – | – | – | – | – | 0.328 | 0.427 | 0.304 | 0.368 | 0.676 | – | 0.491 | 0.552 | 0.444 | 0.283 | 0.231
NCI-H1650 | 0.349 | 0.313 | 0.262 | 0.276 | 0.922 | 1.03 | 0.705 | 0.568 | 0.623 | 0.381 | 0.615 | 0.419 | 0.447 | – | – | – | – | – | 0.49 | 0.3
NCI-H1703 | – | – | – | – | – | 0.582 | 0.637 | 0.5 | 0.14 | – | – | – | – | 0.148 | 0.135 | 0.164 | 0.111 | 0.118 | – | –
NCI-H1792 | 0.813 | 0.71 | 0.616 | 0.445 | 1.1 | 1.09 | 0.931 | 0.867 | 0.872 | – | – | – | – | – | 0.943 | 0.625 | 0.533 | 0.283 | – | 0.414
NCI-H1793 | 0.257 | 0.276 | 0.241 | 0.23 | – | – | – | – | – | 0.765 | 0.849 | 0.487 | 0.355 | 0.629 | 0.503 | 0.346 | 0.239 | 0.13 | 0.473 | 0.239
NCI-H2009 | 0.176 | 0.266 | 0.243 | 0.208 | 1.02 | 1.05 | 0.524 | 0.946 | 0.783 | 0.739 | 0.772 | 0.754 | 0.644 | – | – | – | – | – | 0.777 | 0.21
NCI-H2023 | 0.395 | 0.363 | 0.322 | 0.348 | 0.642 | 0.523 | 0.484 | 0.419 | 0.287 | 0.937 | 0.532 | 0.602 | 0.375 | – | – | – | – | – | 0.495 | 0.308
NCI-H2228 | 0.666 | 0.95 | 0.655 | 0.169 | 0.668 | 0.44 | 0.294 | 0.322 | 0.225 | 0.769 | 0.871 | 0.7 | 0.318 | – | – | – | – | – | 0.623 | 0.765
NCI-H2342 | 0.52 | 0.493 | – | 0.454 | – | – | – | – | – | 0.797 | 0.88 | 0.585 | 0.54 | 0.519 | 0.499 | 0.408 | 0.267 | 0.379 | 0.647 | 0.534
SK-LU-1 | 0.389 | 0.447 | 0.373 | 0.288 | 1.05 | – | 0.848 | 0.604 | 0.402 | 0.805 | 0.878 | 0.651 | 0.421 | – | – | – | – | – | 0.728 | 0.376
SK-MES-1 | 0.3 | 0.327 | 0.281 | 0.247 | 1.02 | 0.998 | 0.969 | – | 0.314 | 1.12 | 1.08 | 0.925 | 0.29 | – | – | – | – | – | 1.05 | 0.329
SW 900 | – | 0.56 | 0.372 | 0.288 | – | – | – | – | – | 0.414 | 0.738 | 0.451 | 0.506 | 0.696 | 0.753 | 0.526 | 0.54 | 0.409 | 0.473 | 0.537
SW 1573 | 0.382 | 0.422 | 0.289 | 0.217 | 0.91 | 0.929 | 0.892 | 0.628 | 0.546 | 0.797 | 0.831 | 0.623 | 0.38 | – | – | – | – | – | 0.612 | 0.428
UMC-11 | 0.321 | 0.327 | 0.335 | 0.243 | 0.651 | 0.684 | 0.52 | 0.537 | 0.528 | 0.434 | 0.417 | 0.332 | 0.283 | – | – | – | – | – | 0.296 | 0.319
